Results from patent US8193364B2, “Insecticidal N-substituted (6-haloalkylpyridin-3-yl)-alkyl sulfoximines” (Dow AgroSciences, LLC., priority 2006, dated 2012).

What was measured:
Format in all cases: in vivo
[1] = tested on: Cotton Aphid (Aphis gossypii); test: Cotton aphid foliar spray assay on squash; details: 72 h, read-out: % Control of cotton aphid on squash (foliar spray)
Description: Squash with fully expanded cotyledon leaves were trimmed to one cotyledon per plant and infested with cotton aphid (wingless adult and nymph) 1 day prior to chemical application. Each plant was examined before chemical application to ensure proper infestation (ca. 30-70 aphids per plant). Compounds (2 mg) were dissolved in 2 ml of acetone:methanol (1:1) solvent, forming stock solutions of 1000 ppm. The stock solutions were then diluted with a diluent consisting 80 parts of 0.025% Tween 20 in H2O and 20 parts of acetone:methanol (1:1). A hand-held Devilbiss sprayer was used to apply the test solutions until runoff to both sides of the squash cotyledon leaves. Four plants (4 replications) were used for each concentration of each compound. Reference plants (solvent check) were sprayed with the diluent only. Treated plants were held in a holding room for 3 days at approximately 23° C. and 40% RH before the number of live aphids on each plant was recorded. Insecticidal activity was measured by Corrected % Control using Abbott's correction formula and presented in Table 1: Corrected % Control=100*(X−Y)/X • where X=No. of live aphids on solvent check plants • Y=No. of live aphids on treated plants

[2] = tested on: Green Peach Aphid (Myzus persicae); test: Green peach aphid foliar spray assay on cabbage; details: 72 h, read-out: % Control at ppm, foliar spray, green peach aphid on cabbage
Description: Cabbage seedlings grown in 3-inch pots, with 2-3 small (3-5 cm) true leaves, were used as test substrate. The seedlings were infested with 20-50 green peach aphids (wingless adult and nymph) 2-3 days prior to chemical application. Four seedlings were used for each treatment. Compounds (2 mg) were dissolved in 2 ml of acetone:methanol (1:1) solvent, forming stock solutions of 1000 ppm. The stock solutions were then diluted with a diluent consisting 80 parts of 0.025% Tween 20 in […] and 20 parts of acetone:methanol (1:1). A hand-held Devilbiss sprayer was used for spraying the test solutions to both sides of cabbage leaves until runoff. Reference plants (solvent check) were sprayed with the diluent only. Treated plants were held in a holding room for three days at approximately 23° C. and 40% RH prior to grading. Evaluation was conducted by counting the number of live aphids per plant under a microscope. Insecticidal activity was measured by using Abbott's correction formula: Corrected % Control=100*(X−Y)/X • where X=No. of live aphids on solvent check plants • Y=No. of live aphids on treated plants The Corrected % Control values from assays are given in Table 2.

[3] = tested on: Green Leafhopper (Nephotettix sp.); test: Green leafhopper foliar spray assay on rice
Description: (§1) A foliar spray assay and a root-uptake systemic assay were performed on both brown planthopper and green leafhopper. Four-week-old rice seedlings were submerged in 3-cm depth of water in the bottom portion (high 5 cm, diameter 3 cm) of a 2-part glass cylinder (high 18 cm, diameter 3 cm). A metal screen was used to hold the seedlings within the bottom portion. Scotch tape was used to bind the two portions of the cylinder after setting up the seedlings. A metal cap was used to cover the cylinder. There were 4 cylinders for each treatment. The test compound was dissolved in acetone to make a 10,000 ppm stock solution. For the foliar spray assay, this stock solution was diluted with water to make 10, 2.5, 0.31, 0.08 and 0.02 ppm test solutions. A volume of 0.5 ml of a test solution or solvent blank as check was sprayed into the glass cylinder. For systemic test, the stock solution was incorporated at final test concentrations of 10, 2.5, 0.31, 0.08 and 0.02 ppm in the water in which rice seedlings were submerged. In both foliar spray and systemic tests, five laboratory-reared 3rd instar nymphs of brown planthopper or green leafhopper were introduced into each cylinder 3 hr after insecticide application. The treated test units were kept in a growth chamber with conditions set as followings: Temperature 28±0.5° C.; Relative humidity 70±0.5%; Photoperiod […].

[4] = tested on: Green Leafhopper (Nephotettix sp.); test: Green leafhopper root-uptake systemic assay on rice
Description: as §1

[5] = tested on: Brown Planthopper (Nilaparvata lugens); test: Brown planthopper root-uptake systemic assay on rice
Description: as §1

[6] = tested on: Green Peach Aphid (Myzus persicae); test: Green peach aphid root uptake assay on pepper; details: 3 days after infestation
Description: Systemic activity of compound 2 against green peach aphid was evaluated in a root uptake assay. Bell peppers (Capsicum annum var. California Wonder) was used as test plant seeded and grown in rock wool plugs. Plants were grown to expanding 1st true leaf stage. The rock wool plugs containing individual plants were placed in 1-ounce cups and surrounded with white clean sand. Five plants were used for each treatment. Stock solution of 1000 ppm was made by dissolving 2 mg of technical test compound in 2 mL acetone. The highest test concentration (10 ppm, 0.05 mg/5 ml) was prepared by diluting 0.32 mL stock solution with 1.6 mL acetone and 30.08 mL DI water, containing 6% acetone. Lower test concentrations were prepared by sequentially diluting 6.5 mL higher concentration (start from the 10 ppm test solution) with 26.0 ml acetone:DI water (6:94). A volume of 5 mL was applied to each cup (each plant). Use 6% acetone in water as solvent check. After insecticide application, the seedlings were infested with green peach aphids and held in a growth chamber (25° C., 50 R.H, 16 hr light: 8 hr drak). Number of live aphid on each plant was counted at 3 days after infestation. Calculations for % control were based on a corrected basis compared to the populations on the solvent check plants. Corrected % Control=100*(X−Y)/X • where X=No. of live aphids on solvent check plants • Y=No. of live aphids on treated plants The Corrected % Control values from lower test rates are given in Table 6.

[7] = tested on: Brown Dog Tick (Rhipicephalus sanguineus); test: Brown dog tick glass plate assay; details: 48-hour observation
Description: Compound 2 was evaluated in a dose response series to establish the range of activity of the test compound. Technical material was dissolved in acetone and diluted with the same solvent to obtain the test concentrations. Tick bioassays were conducted by applying 1.0 ml of the test substance to clean dry glass plates confined by 10 cm grease pencil circles drawn on the plates and spread evenly with an acid brush. The plates were allowed to dry for at least 1 hour before adult ticks were confined to the treated substrate using 10 cm Petri dish lids. Each treatment was replicated 5 times. Approximately 5 adult ticks were placed into each replicate. Mortality was assessed at 2, 8, 24 and 48 hours after introduction of the ticks into the test system. The mean percent mortality for each dosage group and time interval was determined and results from the 48-hour observation are presented in Table 10.

Question: With `CC(c1ccc(C(F)(F)F)nc1)S(C)(=O)=NC#N` (stereo not shown) [Compound 2, [1-(6-trifluoromethylpyridin-3-yl)ethyl](methyl)-oxido-λ^4-sulfanylidenecyanamide] as the compound, how does the pest or weed control at 0.049 ppm [1] read?
Answer: The pest or weed control at 0.049 ppm was 90 to 100%.

Question: And the pest or weed control at 0.195 ppm [1]?
Answer: Its pest or weed control at 0.195 ppm is 90 to 100%.

Question: What about the pest or weed control at 0.781 ppm [1] of the same compound?
Answer: The pest or weed control at 0.781 ppm was 90 to 100%.

Question: And the pest or weed control at 3.13 ppm [1]?
Answer: Its pest or weed control at 3.13 ppm is 90 to 100%.

Question: And the pest or weed control at 0.195 ppm [2]?
Answer: Its pest or weed control at 0.195 ppm is 80 to 89%.

Question: And the pest or weed control at 0.781 ppm [2]?
Answer: Its pest or weed control at 0.781 ppm is 90 to 100%.

Question: And the pest or weed control at 3.125 ppm [2]?
Answer: Its pest or weed control at 3.125 ppm is 90 to 100%.

Question: What about the “% Control at ppm against green leafhopper” value ([3]; 0.02 ppm) of the same compound?
Answer: Its value is “D (60-69)”.

Question: What about the “% Control at ppm against green leafhopper” value ([3]; 0.08 ppm) of the same compound?
Answer: The value was “A (90-100)”.

Question: What about the “% Control at ppm against green leafhopper” value ([3]; 0.31 ppm) of the same compound?
Answer: Its value is “A (90-100)”.

Question: What about the “% Control at ppm against green leafhopper” value ([3]; 2.5 ppm) of the same compound?
Answer: The value was “A (90-100)”.

Question: And the “% Control at ppm against green leafhopper” value ([3]; 10 ppm)?
Answer: The value was “A (90-100)”.

Question: And the “% Control at ppm against green leafhopper” value ([4]; 0.02 ppm in water)?
Answer: The value was “D (60-69)”.

Question: What about the “% Control at ppm against green leafhopper” value ([4]; 0.08 ppm in water) of the same compound?
Answer: Its value is “B (80-89)”.

Question: What about the “% Control at ppm against green leafhopper” value ([4]; 0.31 ppm in water) of the same compound?
Answer: The value was “A (90-100)”.

Question: What about the “% Control at ppm against green leafhopper” value ([4]; 2.5 ppm in water) of the same compound?
Answer: The value was “A (90-100)”.

Question: What about the “% Control at ppm against green leafhopper” value ([4]; 10 ppm in water) of the same compound?
Answer: The value was “A (90-100)”.

Question: What about the “% Control at ppm against brown planthopper” value ([5]; 0.02 ppm in water) of the same compound?
Answer: The value was “F (Less than 50)”.

Question: What about the “% Control at ppm against brown planthopper” value ([5]; 0.08 ppm in water) of the same compound?
Answer: The value was “C (70-79)”.

Question: And the “% Control at ppm against brown planthopper” value ([5]; 0.31 ppm in water)?
Answer: The value was “A (90-100)”.

Question: And the “% Control at ppm against brown planthopper” value ([5]; 2.5 ppm in water)?
Answer: The value was “A (90-100)”.

Question: What about the “% Control at ppm against brown planthopper” value ([5]; 10 ppm in water) of the same compound?
Answer: The value was “A (90-100)”.

Question: What about the “% Control, root uptake systemic, green peach aphid on pepper” value (shortened to “% Control, root uptake systemic”) ([6]; 0.08 ug/plant) of the same compound?
Answer: The value was 61%.

Question: And the “% Control, root uptake systemic” value ([6]; 0.4 ug/plant)?
Answer: The value was 95%.

Question: And the “% Control, root uptake systemic” value ([6]; 2 ug/plant)?
Answer: Its value is 100%.

Question: What about the “% Control, root uptake systemic” value ([6]; 10 ug/plant) of the same compound?
Answer: The value was 100%.

Question: What about the mortality at 50 ppm ([7]; 50 ppm) of the same compound?
Answer: Its mortality at 50 ppm is 28%.

Question: What about the mortality at 500 ppm ([7]; 500 ppm) of the same compound?
Answer: Its mortality at 500 ppm is 61%.
